Source: patent publication US9462805B2, “Herbicide-resistant proteins, encoding genes, and uses thereof” (Beijing Dabeinong Technology Group Co., Ltd., priority 2012, dated 2016)

Key:
[1] = tested on: Arabidopsis T1 plants transformed with truncated 24DT02 nucleotide sequence; assay: Herbicide resistance effect test of transgenic Arabidopsis T1 plants (24DT02-t); format: in vivo, Arabidopsis thaliana; conditions: number of T1 plants, genotype 24DT02-t, 560 g ae/ha sprayed; for Moderately resistant: curly rosette leaves 7 days after spraying; for Non-resistant: dead 14 days after spraying; for Highly resistant: growth consistent with blank solvent 7 days after spraying; for Lowly resistant: incapable of bolting 14 days after spraying
Method: (§1) On 7 days after planting (DAP) and 11 DAP respectively, the T1 plants (cotyledon stage and 2-4 leaves stage, respectively) were sprayed with 0.2% of Liberty herbicide solution (200 g ai/L glufosinate-ammonium) using DeVilbiss compressed air nozzle at a spraying volume of 10 ml/disc (703 L/ha) so as to provide effective amount of glufosinate-ammonium (280 g ai/ha) for each application. The survival plants (actively growing plants) were verified 4 to 7 days after the last spraying and transferred into the square pot (7 cm×7 cm) made from vermiculite and horses dung (3-5 plants per pot). The transplanted plants were covered with moisturizing mask for 3-4 days and placed in culture room at 22° C. or directly into the greenhouse as described above. Then the mask was removed and the plants were planted in greenhouse (22±5° C., 50±30% RH, 14 hours of lighting: 10 hours of darkness, minimum […] natural light+complement light) at least one day before testing the ability of 24DT02 to provide the resistance to phenoxy auxin herbicide.
(§2) 24DT02 gene was used to transform Arabidopsis for the first time. At first, T1 transformants were selected from the background of un-transformed seeds, using glufosinate-ammonium selection scheme. About 40000 T1 seeds were screened among which 195 strains of T1 generation positive transformants (PAT gene) were identified, i.e. the transformation efficiency was about 0.5%. Herbicide resistance effect tests to 2,4-D dimethyl ammonium salt and agroxone of Arabidopsis T1 plants transformed with 24DT02 nucleotide sequence, substituted 24DT02 nucleotide sequence, truncated 24DT02 nucleotide sequence, added 24DT02 nucleotide sequence, control nucleotide sequence respectively and wild-type Arabidopsis plants were performed after 18 days of planting.
(§3) Arabidopsis T1 plants transformed with 24DT02 nucleotide sequence, substituted 24DT02 nucleotide sequence, truncated 24DT02 nucleotide sequence, added 24DT02 nucleotide sequence and control nucleotide sequence respectively and wild-type Arabidopsis plants were sprayed with 2,4-D dimethyl ammonium salt (560 g ae/ha, 1-fold concentration in field), agroxone (560 g ae/ha, 1-fold concentration in field) and blank solvent (water). Resistance conditions of the plants were counted 7 days and 14 days after spraying. Plants with growth conditions consistent with blank solvent (water) 7 days after spaying were classified as highly resistant plants; Plants with curly rosette leaves 7 days after spaying were classified as moderately resistant plants; Plants incapable of bolting 14 days after spaying were classified as low-resistant plants and the dead plants 14 days after spaying were classified as non-resistant plants. Because each Arabidopsis T1 plant was an independent transformation event, significant differences of individual T1 responses were expected under a given dose.

[2] = tested on: corn plants transfected with 24DT02 substituted nucleotide sequence; assay: Herbicide-resistance effect test of transgenic corn plants (substituted 24DT02; strains S4, S5); format: in vivo, maize; conditions: 8960 g ae/ha sprayed, 21 days after spraying; for Abnormal development of prop roots / Normal development of prop roots: number of plants
Method: (§4) Herbicide resistance effects tests to 2,4-D dimethyl ammonium salt and agroxone of maize plants containing 24DT02 nucleotide sequence, 24DT02 substituted nucleotide sequence, 24DT02 truncated nucleotide sequence, 24DT02 added nucleotide sequence, control nucleotide sequence respectively and wild type maize plants (stages V3-V4) were performed respectively.
(§5) Maize plants containing 24DT02 nucleotide sequence, 24DT02 substituted nucleotide sequence, 24DT02 truncated nucleotide sequence, 24DT02 added nucleotide sequence, control nucleotide sequence respectively and wild type maize plants were taken and spayed with 2,4-D dimethyl ammonium salt (8960 g ae/ha, 16-folds concentration in field), agroxone (8960 g ae/ha, 16-folds concentration in field) and blank solvent (water) respectively. Prop root development was counted 21 days after spaying. Three strains (S1, S2, and S3) of corn plants transfected with 24DT02 nucleotide sequence, two strains (S4 and S5) of corn plants transfected with 24DT02 substituted nucleotide sequence, two strains (S6 and S7) of corn plants transfected with 24DT02 truncated nucleotide sequence, two strains (S8 and S9) of corn plants transfected with 24DT02 added nucleotide sequence, two strains (S10 and S11) of corn plants transfected with control nucleotide sequence and 1 strain of wild type (CK) corn were selected and 10-15 plants from each stain were tested.

[3] = tested on: Arabidopsis T1 plants transformed with substituted 24DT02 nucleotide sequence; assay: Herbicide resistance effect test of transgenic Arabidopsis T1 plants (24DT02-i); format: in vivo, Arabidopsis thaliana; conditions: number of T1 plants, genotype 24DT02-i, 560 g ae/ha sprayed; for Moderately resistant: curly rosette leaves 7 days after spraying; for Non-resistant: dead 14 days after spraying; for Highly resistant: growth consistent with blank solvent 7 days after spraying; for Lowly resistant: incapable of bolting 14 days after spraying
Method: as §1, §2, §3

[4] = tested on: wild type maize plants; assay: Herbicide-resistance effect test of wild type (CK) corn; format: in vivo; conditions: 8960 g ae/ha sprayed, 21 days after spraying; for Abnormal development of prop roots / Normal development of prop roots: number of plants
Method: as §4, §5

[5] = tested on: Arabidopsis T1 plants transformed with added 24DT02 nucleotide sequence; assay: Herbicide resistance effect test of transgenic Arabidopsis T1 plants (24DT02-a); format: in vivo, Arabidopsis thaliana; conditions: number of T1 plants, genotype 24DT02-a, 560 g ae/ha sprayed; for Moderately resistant: curly rosette leaves 7 days after spraying; for Non-resistant: dead 14 days after spraying; for Highly resistant: growth consistent with blank solvent 7 days after spraying; for Lowly resistant: incapable of bolting 14 days after spraying
Method: as §1, §2, §3

[6] = tested on: corn plants transfected with 24DT02 truncated nucleotide sequence; assay: Herbicide-resistance effect test of transgenic corn plants (truncated 24DT02; strains S6, S7); format: in vivo, maize; conditions: 8960 g ae/ha sprayed, 21 days after spraying; for Abnormal development of prop roots / Normal development of prop roots: number of plants
Method: as §4, §5

[7] = tested on: corn plants transfected with control nucleotide sequence; assay: Herbicide-resistance effect test of corn plants (control sequence; strains S10, S11); format: in vivo, maize; conditions: 8960 g ae/ha sprayed, 21 days after spraying; for Abnormal development of prop roots / Normal development of prop roots: number of plants
Method: as §4, §5

[8] = tested on: Arabidopsis; assay: Effective dose distinguishing sensitive from resistant Arabidopsis; format: in vivo
[9] = corn strain S4 (substituted 24DT02)
[10] = corn strain S5 (substituted 24DT02)
[11] = corn strain S6 (truncated 24DT02)
[12] = corn strain S7 (truncated 24DT02)
[13] = corn strain S10 (control sequence)
[14] = corn strain S11 (control sequence)

SMILES	Moderately resistant [1]	Non-resistant [1]	Highly resistant [1]	Lowly resistant [1]	Ratio of the normally developed prop roots [2, 9] [%]	Ratio of the normally developed prop roots [2, 10] [%]	Abnormal development of prop roots [2, 9]	Normal development of prop roots [2, 9]	Abnormal development of prop roots [2, 10]	Normal development of prop roots [2, 10]	Moderately resistant [3]	Non-resistant [3]	Highly resistant [3]	Lowly resistant [3]	Ratio of the normally developed prop roots [4] [%]	Abnormal development of prop roots [4]	Normal development of prop roots [4]	Moderately resistant [5]	Non-resistant [5]	Highly resistant [5]	other results
CNC.O=C(O)COc1ccc(Cl)cc1Cl [2,4-D dimethyl ammonium salt]	5	4	7	0	87.50	100.00	2	14	0	15	4	4	8	1	0	16	0	3	3	10	Lowly resistant [5]: 2; Ratio of the normally developed prop roots [6, 11]: 86.67%; Ratio of the normally developed prop roots [6, 12]: 92.86%; Abnormal development of prop roots [6, 11]: 2; Normal development of prop roots [6, 11]: 13; Abnormal development of prop roots [6, 12]: 1; Normal development of prop roots [6, 12]: 13; Ratio of the normally developed prop roots [7, 13]: 0%; Ratio of the normally developed prop roots [7, 14]: 0%; Abnormal development of prop roots [7, 13]: 10; Normal development of prop roots [7, 13]: 0; Abnormal development of prop roots [7, 14]: 11; Normal development of prop roots [7, 14]: 0
Cc1cc(Cl)ccc1OCC(=O)O [agroxone]	4	4	8	2	81.25	93.33	3	13	1	14	5	6	9	1	0	16	0	5	3	8	effective dose to distinguish the sensitive plants from plants with average resistance [8]: 50 g ae/ha; Lowly resistant [5]: 1; Ratio of the normally developed prop roots [6, 11]: 87.50%; Ratio of the normally developed prop roots [6, 12]: 86.67%; Abnormal development of prop roots [6, 11]: 2; Normal development of prop roots [6, 11]: 14; Abnormal development of prop roots [6, 12]: 2; Normal development of prop roots [6, 12]: 13; Ratio of the normally developed prop roots [7, 13]: 0%; Ratio of the normally developed prop roots [7, 14]: 0%; Abnormal development of prop roots [7, 13]: 10; Normal development of prop roots [7, 13]: 0; Abnormal development of prop roots [7, 14]: 10; Normal development of prop roots [7, 14]: 0
